These molecules were tested against T1, human Fatty Acid Synthase (Homo sapiens, UniProt P49327) (assay: Human FAS enzyme assay (decrease in NADPH fluorescence)). Settings: FAS enzyme assay, IC50 from fitted sigmoid curves.
T1 construct: made in house
T1 sequence (P49327 whole entry): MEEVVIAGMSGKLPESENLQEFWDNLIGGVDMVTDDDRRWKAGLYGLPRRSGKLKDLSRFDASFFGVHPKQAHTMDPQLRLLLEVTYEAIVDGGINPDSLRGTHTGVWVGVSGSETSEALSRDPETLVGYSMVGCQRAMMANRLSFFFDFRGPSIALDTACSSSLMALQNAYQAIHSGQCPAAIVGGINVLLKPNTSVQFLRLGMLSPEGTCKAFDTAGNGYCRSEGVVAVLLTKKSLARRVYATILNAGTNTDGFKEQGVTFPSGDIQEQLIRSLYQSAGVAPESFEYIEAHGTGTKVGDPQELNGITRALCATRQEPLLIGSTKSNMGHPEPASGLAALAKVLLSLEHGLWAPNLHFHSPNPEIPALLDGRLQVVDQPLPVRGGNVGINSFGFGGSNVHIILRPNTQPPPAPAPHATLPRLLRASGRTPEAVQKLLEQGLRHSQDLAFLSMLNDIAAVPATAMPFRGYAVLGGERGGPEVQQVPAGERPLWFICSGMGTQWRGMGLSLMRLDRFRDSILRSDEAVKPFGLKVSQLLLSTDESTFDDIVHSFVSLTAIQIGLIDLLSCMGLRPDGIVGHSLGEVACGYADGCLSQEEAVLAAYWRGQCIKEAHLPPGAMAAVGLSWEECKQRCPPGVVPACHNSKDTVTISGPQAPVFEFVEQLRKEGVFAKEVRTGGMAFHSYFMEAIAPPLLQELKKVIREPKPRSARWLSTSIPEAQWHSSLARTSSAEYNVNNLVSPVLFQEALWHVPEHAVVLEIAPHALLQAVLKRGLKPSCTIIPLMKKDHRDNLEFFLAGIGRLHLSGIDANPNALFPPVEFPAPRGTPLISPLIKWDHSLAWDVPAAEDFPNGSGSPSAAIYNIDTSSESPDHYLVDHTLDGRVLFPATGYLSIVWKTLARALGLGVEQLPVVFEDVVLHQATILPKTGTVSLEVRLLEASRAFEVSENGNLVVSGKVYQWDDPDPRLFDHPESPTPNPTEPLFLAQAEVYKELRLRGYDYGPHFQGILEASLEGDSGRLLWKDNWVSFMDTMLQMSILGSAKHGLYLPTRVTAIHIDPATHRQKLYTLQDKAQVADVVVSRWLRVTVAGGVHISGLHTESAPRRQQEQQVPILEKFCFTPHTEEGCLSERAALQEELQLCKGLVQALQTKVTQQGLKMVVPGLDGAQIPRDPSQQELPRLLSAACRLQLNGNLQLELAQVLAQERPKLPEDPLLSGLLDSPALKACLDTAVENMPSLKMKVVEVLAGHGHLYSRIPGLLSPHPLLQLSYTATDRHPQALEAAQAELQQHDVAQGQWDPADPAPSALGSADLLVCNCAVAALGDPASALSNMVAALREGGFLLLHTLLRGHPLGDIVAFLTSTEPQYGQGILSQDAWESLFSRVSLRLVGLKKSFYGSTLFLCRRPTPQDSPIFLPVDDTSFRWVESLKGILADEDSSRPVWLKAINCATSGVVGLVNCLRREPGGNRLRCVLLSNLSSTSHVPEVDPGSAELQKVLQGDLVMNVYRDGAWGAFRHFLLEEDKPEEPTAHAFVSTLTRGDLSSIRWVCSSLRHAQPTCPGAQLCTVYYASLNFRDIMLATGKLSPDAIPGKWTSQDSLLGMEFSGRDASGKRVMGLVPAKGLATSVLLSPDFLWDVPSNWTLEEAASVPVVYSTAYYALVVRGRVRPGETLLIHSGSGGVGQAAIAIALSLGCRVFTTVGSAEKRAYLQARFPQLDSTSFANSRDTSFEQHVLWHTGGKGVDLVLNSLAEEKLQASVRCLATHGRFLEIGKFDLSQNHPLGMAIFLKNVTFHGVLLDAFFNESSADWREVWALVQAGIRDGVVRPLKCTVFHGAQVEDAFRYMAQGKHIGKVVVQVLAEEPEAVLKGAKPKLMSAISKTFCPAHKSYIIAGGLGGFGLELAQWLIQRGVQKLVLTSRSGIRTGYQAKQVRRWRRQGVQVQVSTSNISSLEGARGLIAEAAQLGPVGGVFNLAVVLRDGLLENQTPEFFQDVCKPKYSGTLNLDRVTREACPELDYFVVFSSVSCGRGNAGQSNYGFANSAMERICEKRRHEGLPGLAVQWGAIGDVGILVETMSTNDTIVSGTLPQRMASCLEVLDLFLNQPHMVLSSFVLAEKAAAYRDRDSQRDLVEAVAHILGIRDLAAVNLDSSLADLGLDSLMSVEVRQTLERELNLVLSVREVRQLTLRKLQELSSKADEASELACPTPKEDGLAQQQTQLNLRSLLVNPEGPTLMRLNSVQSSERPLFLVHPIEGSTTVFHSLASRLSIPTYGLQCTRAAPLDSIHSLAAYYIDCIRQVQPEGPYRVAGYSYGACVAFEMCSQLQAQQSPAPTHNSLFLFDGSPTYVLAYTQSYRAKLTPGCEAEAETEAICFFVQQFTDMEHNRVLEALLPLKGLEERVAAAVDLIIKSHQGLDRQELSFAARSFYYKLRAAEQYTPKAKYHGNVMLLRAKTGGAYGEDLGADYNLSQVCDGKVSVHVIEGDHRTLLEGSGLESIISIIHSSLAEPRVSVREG
Format: biochemical
Method: Human and Rat FAS Enzyme Assay.
Fatty acid synthase is an enzyme complex that harbours seven enzymatic activities catalysing the reductive synthesis of long chain fatty acids from acetyl CoA and malonyl CoA to palmitate. When acetyl CoA and malonyl CoA are forming palmitate NADPH is consumed forming NADP. Since NADPH is fluorescent but not NADP the reaction can be measured by analysing the decrease in fluorescence.
Compounds were added to a black 384 well plate (Matrix) in a volume of 5 μl consisting of 20% DMSO and 80% Tris buffer pH 7.5, at a top concentration of 1 mM. NADPH, 30 μl of 166.6 μM, formulated in assay buffer (0.1M Tris ph7.5, 0.1 mM EDTA, 1 mM glutathione, 0.05% BSA), was then added to all of the wells of the plate. Fatty acid synthase Human or rat enzyme (0.4 μg, produced in house), dissolved in 20 mM Tris/HCl pH 7.5, 5 mM BOG, 1 mM TCEP, 10% glycerol, 1 mM EDTA, 150 mM NaCl, was then added to the plate in a volume of 10 μl. Enzyme was added to all but the last two columns of the plate, to which, 10 μl of assay buffer was added (0.1M Tris ph7.5, 0.1 mM EDTA, 1 mM glutathione, 0.05% BSA) to provide a no enzyme assay control. Following a 15-minute incubation period, at room temperature, the plates were read on an Envision plate reader using 340 nm excitation and 460 nm emission filters. This served as a time zero background read. Substrates (an equal mix of both malonyl and acetyl CoA) were then added to the plates in a total volume of 5 μl. The concentrations of malonyl and acetyl CoA in the mixture were 500 μM and 150 μM respectively. Both were prepared as 10 mM stock solutions in distilled water and were subsequently diluted to working concentrations in assay buffer. Plates were then incubated for a further 60 minutes, at room temperature, before being read again on the Envision reader using the same parameters as previously used. The data was analysed by subtracting the background time zero data from that generated following the final 60 minute incubate and the percent inhibition compared to the maximum and minimum assay controls was determined. Sigmoid curves were fitted using Origin 7.5 Client software and IC50 values were determined.
`Cc1ccc(C(=O)N2CCC(c3cccc(Cl)c3)CC2)cc1NC(=O)NC(C)C` [1-[5-[4-(3-chlorophenyl)piperidine-1-carbonyl]-2-methylphenyl]-3-propan-2-ylurea] was tested, and the “IC50, inhibition of human Fatty Acid Synthase” value (shortened to “IC50, inhibition”) was “do not have IC50s in the range of about 0.001 μM to about 30 μM”. For `Cc1ccc(C(=O)N2CCC(c3cccc(F)c3)CC2)cc1NC(=O)NC(C)C` [1-[5-[4-(3-fluorophenyl)piperidine-1-carbonyl]-2-methylphenyl]-3-propan-2-ylurea], the “IC50, inhibition” value was “do not have IC50s in the range of about 0.001 μM to about 30 μM”. `COc1cccc(C2CCN(C(=O)c3ccc(C)c(NC(=O)NC(C)C)c3)CC2)c1` [1-[5-[4-(3-methoxyphenyl)piperidine-1-carbonyl]-2-methylphenyl]-3-propan-2-ylurea] was tested, and the “IC50, inhibition” value was “do not have IC50s in the range of about 0.001 μM to about 30 μM”. For `Cc1ccc(C(=O)N2CCC(O)(c3cccc(C(F)(F)F)c3)CC2)cc1NC(=O)NC(C)C` [1-[5-[4-hydroxy-4-[3-(trifluoromethyl)phenyl]piperidine-1-carbonyl]-2-methylphenyl]-3-propan-2-ylurea], the “IC50, inhibition” value was “do not have IC50s in the range of about 0.001 μM to about 30 μM”. For `COc1ccc(NC(=O)NC(C)C)cc1C(=O)N1CCC(c2ccc(C#N)cc2)CC1` [3-[3-[4-(4-cyanophenyl)piperidine-1-carbonyl]-4-methoxyphenyl]-1-propan-2-ylurea], the “IC50, inhibition” value was “do not have IC50s in the range of about 0.001 μM to about 30 μM”. `CC(C)NC(=O)Nc1ccc([S+](C)[O-])c(C(=O)N2CCC(c3ccc(C#N)cc3)CC2)c1` (stereo not shown) [3-[3-[4-(4-cyanophenyl)piperidine-1-carbonyl]-4-methylsulfinylphenyl]-1-propan-2-ylurea] was tested, and the “IC50, inhibition” value was “do not have IC50s in the range of about 0.001 μM to about 30 μM”. For `CC(C)NC(=O)Nc1ccc(S(C)(=O)=O)c(C(=O)N2CCC(c3ccc(C#N)cc3)CC2)c1` [3-[3-[4-(4-cyanophenyl)piperidine-1-carbonyl]-4-methylsulfonylphenyl]-1-propan-2-ylurea], the “IC50, inhibition” value was “do not have IC50s in the range of about 0.001 μM to about 30 μM”. With `Cc1ccc(C(=O)N2CCC(c3ccc(C#N)cc3)CC2)cc1NC(=O)N(C)C` [3-[5-[4-(4-cyanophenyl)piperidine-1-carbonyl]-2-methylphenyl]-1,1-dimethylurea] the “IC50, inhibition” value was “do not have IC50s in the range of about 0.001 μM to about 30 μM”. For `Cc1ccc(C(=O)N2CCC(c3ccc(C#N)cc3)CC2)cc1NC(=O)N(C)C(C)(C)C#N` [3-[5-[4-(4-cyanophenyl)piperidine-1-carbonyl]-2-methylphenyl]-1-(2-cyanopropan-2-yl)-1-methylurea], the “IC50, inhibition” value was “do not have IC50s in the range of about 0.001 μM to about 30 μM”. With `COCCN(C)C(=O)Nc1cc(C(=O)N2CCC(c3ccc(C#N)cc3)CC2)ccc1C` [3-[5-[4-(4-cyanophenyl)piperidine-1-carbonyl]-2-methylphenyl]-1-(2-methoxyethyl)-1-methylurea] the “IC50, inhibition” value was “do not have IC50s in the range of about 0.001 μM to about 30 μM”. For `Cc1ccc(C(=O)N2CCC(c3ccc(C#N)cc3)CC2)cc1NC(=O)N(C1CC1)C1CCS(=O)(=O)C1` (stereo not shown) [3-[5-[4-(4-cyanophenyl)piperidine-1-carbonyl]-2-methylphenyl]-1-cyclopropyl-1-(1,1-dioxothiolan-3-yl)urea], the “IC50, inhibition” value was “do not have IC50s in the range of about 0.001 μM to about 30 μM”. With `Cc1ccc(C(=O)N2CCC(c3ccc(C#N)cc3)CC2)cc1NC(=O)N(C)CC1CCCO1` (stereo not shown) [3-[5-[4-(4-cyanophenyl)piperidine-1-carbonyl]-2-methylphenyl]-1-methyl-1-(oxolan-2-ylmethyl)urea] the “IC50, inhibition” value was “do not have IC50s in the range of about 0.001 μM to about 30 μM”. `COc1ccc(NC(=O)NCc2ccccc2)cc1C(=O)N1CCC(c2ccc(C#N)cc2)CC1` [3-benzyl-1-[3-[4-(4-cyanophenyl)piperidine-1-carbonyl]-4-methoxyphenyl]urea] was tested, and the “IC50, inhibition” value was “do not have IC50s in the range of about 0.001 μM to about 30 μM”.

From patent publication US20090118332A1, “Therapeutic Agents - 551” (AstraZeneca AB, priority 2006, published 2009)
